Source: patent US20250127813A1, “COMBINATION DRUG” (OTSUKA PHARMACEUTICAL CO., LTD., priority 2021, published 2025)
Entries after “also recorded” stand apart in the source; their conditions may differ. Like-named read-outs stand apart in the source and are kept apart here.

Columns and labels:
NALM6-luc2 = system: NALM6-luc2
Procedure: 6-week-old NOG mice produced by In-Vivo Science Co., Ltd., were obtained, and tumor cells were intravenously transplanted into the mice at 7 weeks of age to prepare tumor-bearing mice. The day before the transplantation, busulfex (BSF) was intraperitoneally administered at 20 mg/kg. During the breeding period, the mice were housed with 5 mice per group and bred in a P2A breeding room set to a temperature of 24° C. (actual measurement: 19.7 to 25.0° C.), humidity of 50% (actual measurement: 38.6 to 58.5%), and illumination of 12 hours/day (8:00 a.m. to 8:00 p.m.). During the breeding period, the mice were allowed free access to radiation-sterilized solid feed for mice (CL-2, produced by Clea Japan, Inc.) and autoclave-sterilized tap water placed in a water bottle.
CD19 CAR-T cells were intravenously administered once according to the group constitution on the same day as grouping. The IAP antagonist also started to be administered on the same day as grouping and was orally or intravenously administered according to the group constitution table.
The evaluation period was set to 3 to 4 weeks. Grouping and pharmacological evaluation were performed based on tumor luminescence values as determined by IVIS (trademark). Luminescence value measurement by IVIS (trademark) and body weight measurement were performed twice a week.
For NALM6-luc2, after resuspension, a portion of the cell suspension was taken, dead cells were stained with AOPI Staining Solution, and the number of viable cells was counted with a blood cell measuring device. A cell suspension was prepared by diluting the cells with RPMI 1640 to 1×10^7 cells/mL, based on the measurement results of viable cell count of the cells. Similarly, in a low tumor volume system, a cell suspension was prepared by diluting the cells with serum-free RPMI 1640 to achieve a concentration of 1×10^6 cells/mL.
After the mice were retained using a retainer, a cell suspension was transplanted at 1×10^6 cells/0.1 mL/body using a 27G Myjector (1 mL, produced by Terumo Corporation) to the tail vein of each mouse with no anesthesia. In the low tumor volume system, a cell suspension at 1×10^5 cells/0.1 mL/body was transplanted.
In accordance with the dosing regimen shown in FIG. 6, NALM6-luc2 was transplanted the day after treating the […] with busulfex. On the third day after the transplantation, luminescence values were measured using the IVIS (trademark) Lumina X5 In-Vivo imaging system (produced by PerkinElmer, Co., Ltd.). Using the luminous values as an indicator and using SAS software R9.4 (produced by SAS Institute Japan), the mice were divided into groups of 5 mice each by the stratified random sampling method.
1) A suspension of CD19 CAR-T cells was administered to the tail vein at the time of grouping. For the dosage, the number of viable CD19 CAR-T cells was counted and a cell suspension prepared according to the group constitution table was administered once at 0.1 mL/body. For the administration, a Myjector syringe with a 27G needle was used.
5) Birinapant was intraperitoneally administered at a dose of 10 mL/kg according to the group composition table. Tolinapant, LCL161, and AT406 were orally administered at a dose of 10 mL/kg according to the group composition table using a sonde in the same manner. For intraperitoneal administration, an insulin syringe with a 26G needle was used in place of the sonde. For oral administration, a needle was used in place of the sonde to administer each drug.
VivoGlo™-luciferin (produced by Promega) was dissolved in D-PBS(−) to achieve a concentration of 30 mg/mL and then cryopreserved at −20° C. under light-shielded conditions. On the day of measurement, dissolved VivoGlo™-luciferin was diluted with an equivalent amount of D-PBS(−) and stored at room temperature under light-shielded conditions until use for testing. Based on the body weight measured in advance, VivoGlo™-luciferin was intraperitoneally administered in a volume of 10 mL/kg.

CD19-negative NALM6 = experiment: Cell death induction by tolinapant in presence of cytokine produced from CAR-T; type: cell-based; conditions: cytokine produced from CAR-T present with tolinapant; antigen-negative as well as antigen-expressing tumor cells
Excerpt: It has also been confirmed that when CAR-T used in this Example was reacted with a target CAR antigen-expressing tumor cell (e.g., CD19-positive NALM6) in vitro, cytokine (e.g., TNF-α) was produced. […] This non-contact apoptosis induction to tumor cells is expected to exert an antitumor effect on tumor cells in which antigen escape has occurred or tumor cells metastasized to a site to which modified immune cells cannot make access.

[1] = combined use with CD19 CAR-T, AUC up to day 14
[2] = combined use with CD19 CAR-T, AUC up to day 17
[3] = combined use with CD19 CAR-T, maximum tumor volume (luminescence value)

`C[C@@H]1CN(CC(=O)N2CC(C)(C)c3nc(CO)c(Cc4ccc(F)cc4)cc32)[C@@H](CN2CCOC[C@H]2C)CN1` [Tolinapant, 1-[6-[(4-fluorophenyl)methyl]-5-(hydroxymethyl)-3,3-dimethyl-2H-pyrrolo[3,2-b]pyridin-1-yl]-2-[(2R,5R)-5-methyl-2-[[(3R)-3-methylmorpholin-4-yl]methyl]piperazin-1-yl]ethanone] was tested, and the “maximum effect / drug efficacy-enhancement effect of combination with tolinapant compared with other IAP antagonists” value (NALM6-luc2; combination with CD19 CAR-T, versus AT406, LCL161, birinapant) was “the combination with tolinapant was superior; also recorded: a higher drug efficacy-enhancement effect than combinations with any other IAP antagonist”, the “t-Test using AUC as an indicator (day 14), Tolinapant versus AT406” value (NALM6-luc2; [1]) was under 0.05 and the “t-Test using AUC as an indicator (day 14), Tolinapant versus Birinapant” value (NALM6-luc2; [1]) was under 0.05. For the same compound, the “t-Test using AUC as an indicator (day 14), Tolinapant versus LCL161” value (NALM6-luc2; [1]) was under 0.05, the “t-Test using AUC as an indicator (day 17), Tolinapant versus AT406” value (NALM6-luc2; [2]) was under 0.05 and the “t-Test using AUC as an indicator (day 17), Tolinapant versus Birinapant” value (NALM6-luc2; [2]) was under 0.05. The “t-Test using AUC as an indicator (day 17), Tolinapant versus LCL161” value (NALM6-luc2; [2]) was under 0.05, the “t-Test using AUC as an indicator (day 17), Tolinapant versus AT406” value (NALM6-luc2; combined use with CD19 CAR-T, AUC up to day 17, listed as tolinapant) was “a significance due to combined use of tolinapant could be observed” and the “t-Test using the maximum tumor volume as an indicator, Tolinapant versus AT406” value (NALM6-luc2; [3]) was under 0.05. For the same compound, the “t-Test using the maximum tumor volume as an indicator, Tolinapant versus Birinapant” value (NALM6-luc2; [3]) was under 0.05, the “t-Test using the maximum tumor volume as an indicator, Tolinapant versus LCL161” value (NALM6-luc2; [3]) was under 0.05 and the “t-Test using the maximum tumor volume as an indicator, Tolinapant versus AT406” value (NALM6-luc2; combined use with CD19 CAR-T, maximum tumor volume (luminescence value), listed as tolinapant) was “a significant difference”. The “effect of tolinapant + 1×10^5 cells CD19 CAR-T compared with 1×10^6 cells CD19 CAR-T alone” value (NALM6-luc2; tolinapant 16 mg/kg qd po + CD19 CAR-T 1×10^5 cells/body iv) was “an effect equivalent to the effect achieved by using 1×10^6 cells of CD19 CAR-T alone was observed on day 14; also recorded: better tumor regression was observed on day 14 and thereafter”, the “combination effect of tolinapant and CD19 CAR-T (tumor luminescence value)” value (NALM6-luc2; tolinapant 16 mg/kg qd po + CD19 CAR-T 1×10^5 cells/body iv, versus tolinapant only or CD19 CAR-T only) was “significantly improved effect (p<0.05); also recorded: a significant combination effect was observed on day 7 and thereafter; also recorded: significant, highly reproducible results” and the “efficacy of tolinapant administered alone” value (NALM6-luc2; tolinapant alone, 16 mg/kg, daily oral administration) was “showed no efficacy; also recorded: no effect”. The “induction of cell death (e.g., apoptosis)” value (CD19-negative NALM6) was “cell death (e.g., apoptosis) is induced to antigen-negative tumor cells (e.g., CD19-negative NALM6) as well as antigen-expressing cells”.
